Results taken from patent US6361788B1, “Synergistic biocide composition” (Thor Chemie GmbH, priority 1997, dated 2002).
“Also recorded” adds a separate entry of the source.

Experiments:
Type in all cases: cell-based
Escherichia coli = assay: MIC and synergy of MIT and BIT in Müller-Hinton broth, 72 h; settings: for growth of the microorganism: MIT ppm = row head c0; on growth of the microorganism: key: growth of the microorganism took place (symbol '+'); or not (symbol '−')
Experimental: For this purpose, aqueous mixtures were produced with various concentrations of 2-methylisothiazolin-3-one (MIT) and 1,2-benzisothiazolin-3-one (BIT) and the activity of these mixtures on Escherichia coli (International Mycological Institute, Strain No. IMI 362054) was tested.
In addition to the biocide component and water, the aqueous mixtures contained a nutrient medium, namely a Müller-Hinton broth (commercial product “Merck No. 10393”). The cell density of Escherichia coli was 10^6 cells/mL. The incubation time was 72 h at 25° C. Each sample was incubated on an incubation shaker at 120 rpm.
(§1) The synergy index is calculated according to the method of F. C. Kull et al., Applied Microbiology, Vol. 9 (1961), p. 538. Here the synergy index is calculated using the following formula:
(§2) Synergy index SI=Qa/QA+Qb/QB.
When the synergy index has the value 1, this means that there is an addition of the activity of the two biocides. When the synergy index has a value of less than 1, this means that a synergy of the two biocides exists.

Pseudomonas aeruginosa = assay: MIC and synergy of MIT and BIT in Müller-Hinton broth, 48 h; settings: for growth of the microorganism: MIT ppm = row head c0; on growth of the microorganism: key: growth of the microorganism took place (symbol '+'); or not (symbol '−')
Experimental: as §1, §2
The synergy of the two active substances MIT and BIT against the microorganism Pseudomonas aeruginosa is shown as in Example 1.
The test batches again contained a Müller-Hinton broth as a nutrient medium. The cell density was 10^6 cells/mL. The incubation time was 48 h at 25° C. Each sample was incubated on an incubation shaker at 120 rpm.

[1] = system: standard bacterial inoculum; assay: Preservation of coating composition A, repeated bacterial inoculation, streak evaluation
Excerpt: Biocide compositions according to the invention were incorporated into a coating composition A that is used for coating building facades. This coating composition is a plaster based on an aqueous polymer dispersion commercially available under the designation “Granol KR 3.0” (company Steinwerke Kupferdreh GmbH). The addition of the biocide composition of the invention served to preserve the coating composition before its use, i.e., while it was stored in its packing drums.
(§3) The biocides shown in Table XI below were added respectively to 50 g of coating composition A. The stated amounts of biocide refer to the amount of coating composition A. In the MIT/BIT mixtures, the two biocides were present in a weight ratio of 1:1.
(§4) Apart from a blank test without addition of biocide, 1 mL of a standard bacterial inoculum that contained the following bacterial strains was added to each sample of coating composition A:
(§5) The cell density of the inoculum was 10^10 to 3·10^10 cells/mL, and the cell density of the samples was 2·10^8 to 6·10^8 cells/g. The samples were held at 30° C. for 7 days. Then a streak of each sample was produced on a nutrient agar plate, held at 30° C. for 48 h, and then evaluated for bacterial growth. The following evaluation scale was used:
(§6) When the bacterial growth was evaluated as below 6, a second bacterial inoculum of the above-mentioned type was added to the corresponding original 50 g sample and it was again held at 30° C. for 7 days. Then a streak was again produced on a nutrient agar plate, which was again evaluated for its bacterial growth after a holding time of 48 h at 30° C.
(§7) When the bacterial growth of the streak was evaluated as 6 for a sample, the testing of this sample was terminated. As long as a sample had not reached this number, a bacterial inoculum was again added in the above-mentioned manner and the sample was held and tested by means of a streak. This procedure was repeated as necessary, with a maximum of 4 bacterial inocula being added per sample.

[2] = system: standard bacterial inoculum; assay: Preservation of coating composition B, repeated bacterial inoculation, streak evaluation
Experimental: as §3, §4, §5, §6, §7
Example 9 was repeated, but using coating composition B instead of coating composition A.
Coating composition B is a particularly low-emission plaster based on a polymer dispersion commercially available under the designation “Granol KR 3.0 LF” (company Steinwerke Kupferdreh GmbH).

Penicillium funiculosum = assay: MIC and synergy of MIT and BIT in Sabouraud maltose broth, 96 h; settings: for growth of the microorganism: MIT ppm = row head c0; on growth of the microorganism: key: growth of the microorganism took place (symbol '+'); or not (symbol '−')
Experimental: as §1, §2
The synergy of the two active substances MIT and BIT against the microorganism Penicillium funiculosum is shown as in Example 1.
The test batches contained a Sabouraud maltose broth as a nutrient medium. The spore concentration was 10^6 per mL. The incubation time was 96 h at 25° C. Each sample was incubated on an incubation shaker at 120 rpm.

Structure (SMILES): O=c1[nH]sc2ccccc12 [BIT, 1,2-benzisothiazolin-3-one]
- MIC at Total concentration BIT + MIT Qa + Qb (Escherichia coli; 72 h): 25 ppm
- Qa/QA (Escherichia coli; 72 h): 1.00
- Synergy index Qa/QA + Qb/QB (Escherichia coli; 72 h, method of Kull): 1.00
- growth of the microorganism (Escherichia coli; BIT 1 ppm, 72 h): +
- growth of the microorganism (Escherichia coli; BIT 2.5 ppm, 72 h): +
- growth of the microorganism (Escherichia coli; BIT 5 ppm, 72 h): +
- growth of the microorganism (Escherichia coli; BIT 7.5 ppm, 72 h): +
- growth of the microorganism (Escherichia coli; BIT 10 ppm, 72 h): +
- growth of the microorganism (Escherichia coli; BIT 12.5 ppm, 72 h): +
- growth of the microorganism (Escherichia coli; BIT 15 ppm, 72 h): +
- growth of the microorganism (Escherichia coli; BIT 17.5 ppm, 72 h): +
- growth of the microorganism (Escherichia coli; BIT 20 ppm, 72 h): +
- growth of the microorganism (Escherichia coli; BIT 25 ppm, 72 h): −
- growth of the microorganism (Escherichia coli; BIT 30 ppm, 72 h): −
- growth of the microorganism (Escherichia coli; BIT 35 ppm, 72 h): −
- MIC at BIT concentration Qa (Escherichia coli; BIT share of the BIT/MIT mixture at MIC, 72 h): 25 ppm
- MIC value (Escherichia coli; used alone, 72 h at 25° C.): 25 ppm
- MIC at Total concentration BIT + MIT Qa + Qb (Pseudomonas aeruginosa; 48 h): 150 ppm
- Qa/QA (Pseudomonas aeruginosa; 48 h): 1.00
- Synergy index Qa/QA + Qb/QB (Pseudomonas aeruginosa; 48 h): 1.00
- growth of the microorganism (Pseudomonas aeruginosa; BIT 5 ppm, 48 h): +
- growth of the microorganism (Pseudomonas aeruginosa; BIT 10 ppm, 48 h): +
- growth of the microorganism (Pseudomonas aeruginosa; BIT 25 ppm, 48 h): +
- growth of the microorganism (Pseudomonas aeruginosa; BIT 50 ppm, 48 h): +
- growth of the microorganism (Pseudomonas aeruginosa; BIT 75 ppm, 48 h): +
- growth of the microorganism (Pseudomonas aeruginosa; BIT 100 ppm, 48 h): +
- growth of the microorganism (Pseudomonas aeruginosa; BIT 125 ppm, 48 h): +
- growth of the microorganism (Pseudomonas aeruginosa; BIT 150 ppm, 48 h): −
- growth of the microorganism (Pseudomonas aeruginosa; BIT 175 ppm, 48 h): −
- growth of the microorganism (Pseudomonas aeruginosa; BIT 200 ppm, 48 h): −
- MIC at BIT concentration Qa (Pseudomonas aeruginosa; BIT share of the BIT/MIT mixture at MIC, 48 h): 150 ppm
- MIC value (Pseudomonas aeruginosa; used alone, 48 h at 25° C.): 150 ppm
- Bacterial growth (7 days + 48 h after 4th inoculation) ([1]; biocide 0.005% by wt): full bacterial growth was reached already after the first inoculation; also recorded: (Growth already after 1st inoculation)
- Bacterial growth (7 days + 48 h after 4th inoculation) ([1]; biocide 0.01% by wt): (Growth already after 1st inoculation)
- Bacterial growth (7 days + 48 h after 4th inoculation) ([1]; biocide 0.015% by wt): after the second inoculation; also recorded: (Growth already after 2nd inoculation)
- Bacterial growth (7 days + 48 h after 4th inoculation) ([1]; biocide 0.02% by wt): (Growth already after 2nd inoculation)
- Bacterial growth (7 days + 48 h after 4th inoculation) ([1]; biocide 0.03% by wt): after the third inoculation; also recorded: (Growth already after 3rd inoculation)
- bacterial attack ([2]; all tested concentrations 0.005-0.03% by wt): complete bacterial attack could be observed after the third inoculation at the latest
- Bacterial growth (7 days + 48 h after 4th inoculation) ([2]; biocide 0.005% by wt): (Growth already after 1st inoculation)
- Bacterial growth (7 days + 48 h after 4th inoculation) ([2]; biocide 0.01% by wt): (Growth already after #^st inoculation)
- Bacterial growth (7 days + 48 h after 4th inoculation) ([2]; biocide 0.015% by wt): (Growth already after 2nd inoculation)
- Bacterial growth (7 days + 48 h after 4th inoculation) ([2]; biocide 0.02% by wt): (Growth already after 2nd inoculation)
- Bacterial growth (7 days + 48 h after 4th inoculation) ([2]; biocide 0.03% by wt): (Growth already after 3rd inoculation)
- MIC at Total concentration BIT + MIT Qa + Qb (Penicillium funiculosum; 96 h): 200 ppm
- Qa/QA (Penicillium funiculosum; 96 h): 1.00
- Synergy index Qa/QA + Qb/QB (Penicillium funiculosum; 96 h): 1.00
- growth of the microorganism (Penicillium funiculosum; BIT 10 ppm, 96 h): +
- growth of the microorganism (Penicillium funiculosum; BIT 15 ppm, 96 h): +
- growth of the microorganism (Penicillium funiculosum; BIT 20 ppm, 96 h): +
- growth of the microorganism (Penicillium funiculosum; BIT 30 ppm, 96 h): +
- growth of the microorganism (Penicillium funiculosum; BIT 40 ppm, 96 h): −
- growth of the microorganism (Penicillium funiculosum; BIT 50 ppm, 96 h): −
- growth of the microorganism (Penicillium funiculosum; BIT 75 ppm, 96 h): −
- MIC at BIT concentration Qa (Penicillium funiculosum; share of the BIT/MIT mixture at MIC, 96 h): 200 ppm
- MIC value (Penicillium funiculosum; used alone, 96 h at 25° C.): 40 ppm
